Patent US20160058771A1, “ALPHA-2 ADRENOCEPTOR AND SIGMA RECEPTOR LIGAND COMBINATIONS” (LABORATORIOS DEL DR. ESTEVE, S.A., priority 2013, published 2016)
Entries after “also recorded” stand apart in the source; their conditions may differ. Structures can show the parent of a compound that is named as a salt.

Tests used:
male Swiss CD-1 mice [1] = test: Tail-flick test (radiant heat, acute thermal pain); format: in vivo
Experimental: Tail-flick test is a classical model of acute thermal pain (D'Amour and Smith, 1941) Pain sensitivity is measured in response to a radiant heat beam focused on the mouse tail. Latency to the first pain response is recorded as a measure of thermal pain sensitivity. The withdrawal is a classic nocifensive reflex that removes the body apart from the source of pain.
Male Swiss CD-1 mice weighing between 30 and 35 g (Charles River, Barcelona, Spain) were used for all the experiments. The drugs evaluated were compound 63.HCl and clonidine hydrochloride and guanfacine, as alpha-2 adrenergic agonists. Compound 63.HCl was injected intraperitoneally (i.p.) in a volume of 10 ml/kg in 0.5% hydroxypropyl methyl cellulose (HPMC) and clonidine or guanfacine were administered subcutaneously (s.c.) dissolved in isotonic saline (0.9% NaCl) solution, in a volume of 5 ml/kg. Control animals received the same volume of vehicle.
Antinociception was assessed using the radiant heat tail-flick test as described by Moncada et al., 2003. Briefly, the animals were restrained in a Plexiglas tube and placed on the tail-flick apparatus. The radiant heat source was focused on the proximal portion of the tail at about […] of the tip. Vehicle tail-flick latency (VL) was determined using a stimulus intensity adjusted to elicit a mean reaction time in the range of 2-4 s. Following vehicle or compound administration, test latencies (TL) were obtained at 30 min. A cut off time of 10 s was employed in order to prevent tissue damage. All experiments were performed under blind conditions.
Data were expressed as means±S.E.M of the […] (s.).
(§1) In order to generate dose-response curves, raw data were converted to % maximum possible antinociceptive effect using the following equation:
(§2) % MPE=[(TL−VL)/(Cut off−VL)]·100
where MPE: maximum possible antinociceptive effect; TL: test latencies and VL: vehicle latency. 2.1. Effects of the Compound 63.HCl Alone or Combined with the Alpha-2 Agonist Clonidine

male Swiss CD-1 mice [2] = test: Hot-plate test (50° C., latency to hind paw licking); format: in vivo; conditions: for analgesic effect (latency to hind paw licking): vs control, FIG. 6
Source text: The hot plate is another classical test of acute thermal nociception. This test consists of introducing mice into an open-ended cylindrical space with a floor consisting of a metallic plate that is heated to a constant temperature. Typical behavioural responses in mice are paw-licking and jumping (Le Bars et al., 2001)
Male Swiss CD-1 mice weighing between 30 and 35 g (Charles River, Barcelona, Spain) were used for all the experiments. The drugs evaluated were the Sigma ligand Compound 63.HCl and the alpha-2 adrenergic agonists clonidine, guanfacine, and dexmedetomidine. Compound 63.HCl was injected intraperitoneally (i.p.) in a volume of 10 ml/kg in 0.5% hydroxypropyl methyl cellulose (HPMC), whereas clonidine, guanfacine and dexmedetomidine were administrated subcutaneously (s.c.) in saline, in a volume of 5 ml/kg. Control animals received the same volume of vehicle. The hot plate test was done 30 min after compound's administration. Mice were placed individually on the hot-plate at 50° C. and the reaction time starting from the placement of the mouse on the hot plate to the time of hind paw licking (HPL) was measured with a stopwatch. An independent untreated group of animals from each strain was used to evaluate the basal latencies and five times those values were chosen as the cut-off time to avoid tissue damage.
Data were expressed as means±S.E.M of the paw withdrawal latency (s).
as §1, §2
where MPE: maximum possible antinociceptive effect; TL: test latencies and VL: vehicle latency. 3.1. Effect of the Sigma Ligands Compound 63.HCl Alone or Combined with the Alpha-2 Agonist Clonidine

SMILES: Cc1cc(OCCN2CCOCC2)nn1-c1ccc2ccccc2c1 [compound 63.HCl, 4-{2-[5-methyl-1-(naphthalen-2-yl)-1H-pyrazol-3-yloxy]ethyl}morpholine hydrochloride]
- effect on the dose-response curve of clonidine (male Swiss CD-1 mice [1]; compound 63.HCl 40 mg/kg ip with clonidine 0.125-1 mg/kg sc, displacement to the left of the curve, FIG. 2): potentiates the antinociceptive effect of clonidine
- antinociceptive effect (tail withdrawal latency) (male Swiss CD-1 mice [1]; compound 63.HCl alone, 5, 10 and 40 mg/kg ip, 30 min before test, vs vehicle, FIG. 1): failed to produce a statistically significant antinociceptive effect
- effect on the dose-response curve of clonidine (male Swiss CD-1 mice [2]; Compound 63.HCl 40 mg/kg ip with clonidine 0.125-1 mg/kg sc, displacement to the left of the curve, FIG. 5): potentiated the antinociceptive effect of clonidine
- antinociceptive effect (latency to hind paw licking) (male Swiss CD-1 mice [2]; Compound 63.HCl alone 40 mg/kg ip, 30 min before test, FIG. 4, FIG. 5, hydrochloride): failed to produce a statistically significant antinociceptive effect; also recorded: showed no activity

SMILES: Clc1cccc(Cl)c1N=C1NCCN1 [clonidine]
- ED50 (male Swiss CD-1 mice [1]; Mus musculus, clonidine alone, sc, 0.125-1 mg/kg, % MPE dose-response, FIG. 2, read-out: ED50 (50% effective dose of clonidine)): 0.18 mg/kg
- ED50 (male Swiss CD-1 mice [2]; Mus musculus, clonidine alone, sc, 0.125-1 mg/kg, FIG. 5, read-out: ED50 (50% effective dose of clonidine)): 0.3 mg/kg

SMILES: Cc1cccc([C@H](C)c2cnc[nH]2)c1C [dexmedetomidine]
- analgesic effect (latency to hind paw licking) (male Swiss CD-1 mice [2]; dexmedetomidine alone 0.01 mg/kg s.c.): not effective compared to control group

SMILES: N=C(N)NC(=O)Cc1c(Cl)cccc1Cl [guanfacine]
- analgesic effect (tail withdrawal latency) (male Swiss CD-1 mice [1]; guanfacine alone 1.25 mg/kg s.c., vs vehicle, FIG. 3): not effective compared to vehicle
- analgesic effect (latency to hind paw licking) (male Swiss CD-1 mice [2]; guanfacine alone 5 mg/kg s.c.): not effective compared to control group
